Patent US12600709B2, “Nonpeptide somatostatin type 5 receptor agonists and uses thereof” (Crinetics Pharmaceuticals, Inc., priority 2019, dated 2026)
pEC50: −log10 of the molar value.

Molecular target: T1, human somatostatin receptor subtype 5 (Homo sapiens, UniProt P35346)
T1 construct: expressed in transfected cells
Experiment: cAMP assay for SST5R (inhibition of cAMP in CHO-K1 cells)
Type: cell-based
Conditions: Table A; inhibition of cAMP via human SST5 receptor; read-out: SST5 potency
Procedure, shortened: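 CHO-K1 cells stably expressing human SSTR5 were treated 20 min at 37 °C with compounds plus 1.6 μM NKH477 in HBSS, 0.5 mM HEPES pH 7.4, 0.1% BSA, 0.2 mM IBMX. Lysate cAMP measured by HTRF against a standard curve; EC50 from cAMP-versus-concentration plots.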

T1 sequence (P35346 whole entry): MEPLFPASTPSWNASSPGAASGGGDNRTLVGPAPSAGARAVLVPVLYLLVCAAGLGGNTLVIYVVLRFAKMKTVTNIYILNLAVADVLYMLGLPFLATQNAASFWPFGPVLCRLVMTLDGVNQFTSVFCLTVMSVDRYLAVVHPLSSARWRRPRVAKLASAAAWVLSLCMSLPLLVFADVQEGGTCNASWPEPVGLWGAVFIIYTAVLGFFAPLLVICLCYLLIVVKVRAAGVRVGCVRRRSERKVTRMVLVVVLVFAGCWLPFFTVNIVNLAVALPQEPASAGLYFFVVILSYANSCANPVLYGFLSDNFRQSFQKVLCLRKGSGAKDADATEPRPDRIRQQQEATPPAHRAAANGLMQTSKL

## CC1(C)CC1CNC(=O)c1cncc(-c2cc(F)cc(F)c2)c1N1CC[C@](C)(N)C1 (stereo partly drawn) [1-43, 4-[(3S)-3-amino-3-methylpyrrolidin-1-yl]-5-(3,5-difluorophenyl)-N-[(2,2-dimethylcyclopropyl)methyl]pyridine-3-carboxamide]
  pEC50: > 8.00

## C[C@H](NC(=O)c1ccnc(-c2cc(F)cc(F)c2)c1N1CC[C@](C)(N)C1)c1ccccc1 [3-3, 3-[(3S)-3-amino-3-methylpyrrolidin-1-yl]-2-(3,5-difluorophenyl)-N-[(1S)-1-phenylethyl]pyridine-4-carboxamide]
  pEC50: 6.00 to 7.00

## Cc1cccc2[nH]c(-c3cncc(C(=O)N4CCCC4)c3N3CC[C@](C)(N)C3)nc12 [2-2, (3S)-3-methyl-1-[3-(4-methyl-1H-1,3-benzodiazol-2-yl)-5-(pyrrolidine-1-carbonyl)pyridin-4-yl]pyrrolidin-3-amine]
  pEC50: 7.00 to 8.00

## COc1ncc(C(=O)N2CCCC(F)(F)C2)c(N2CC[C@H](N)C2)c1-c1cc(F)cc(F)c1 [1-237, (3S)-1-[3-(3,5-difluorophenyl)-5-(3,3-difluoropiperidine-1-carbonyl)-2-methoxypyridin-4-yl]pyrrolidin-3-amine]
  pEC50: < 6.00

## Cc1cccc2[nH]c(-c3cncc(C(=O)NCC4CCC4)c3N3CC[C@](C)(N)C3)nc12 [2-31, 4-[(3S)-3-amino-3-methylpyrrolidin-1-yl]-N-(cyclobutylmethyl)-5-(4-methyl-1H-1,3-benzodiazol-2-yl)pyridine-3-carboxamide]
  pEC50: > 8.00

## C[C@]1(N)CCN(c2c(C(=O)NC3CCCOC3)cnc(C#N)c2-c2cc(F)cc(F)c2)C1 (stereo partly drawn) [1-89, 4-[(3S)-3-amino-3-methylpyrrolidin-1-yl]-6-cyano-5-(3,5-difluorophenyl)-N-(oxan-3-yl)pyridine-3-carboxamide]
  pEC50: > 8.00

## C[C@H](NC(=O)c1cncc(-c2ccc3c(c2)OC(F)(F)O3)c1N1CC[C@](C)(N)C1)C1CC1 [1-175, 4-[(3S)-3-amino-3-methylpyrrolidin-1-yl]-N-[(1S)-1-cyclopropylethyl]-5-(2,2-difluoro-2H-1,3-benzodioxol-5-yl)pyridine-3-carboxamide]
  pEC50: 7.00 to 8.00

## C[C@]1(N)CCN(c2c(C(=O)NC3CCOCC3)cnc(C#N)c2-c2cc(F)cc(F)c2)C1 [1-88, 4-[(3S)-3-amino-3-methylpyrrolidin-1-yl]-6-cyano-5-(3,5-difluorophenyl)-N-(oxan-4-yl)pyridine-3-carboxamide]
  pEC50: > 8.00

## C[C@H](NC(=O)c1cnc(C#N)c(-c2cc(F)cc(F)c2)c1N1CC[C@H](N)C1)c1ccccn1 [1-95, 4-[(3S)-3-aminopyrrolidin-1-yl]-6-cyano-5-(3,5-difluorophenyl)-N-[(1S)-1-(pyridin-2-yl)ethyl]pyridine-3-carboxamide]
  pEC50: > 8.00

## C[C@]1(N)CCN(c2c(C(=O)N[C@@H]3CCCC[C@H]3F)cncc2-c2cc(F)cc(F)c2)C1 (mixture of isomers) [1-52, 4-[(3S)-3-amino-3-methylpyrrolidin-1-yl]-5-(3,5-difluorophenyl)-N-[trans-2-fluorocyclohexyl]pyridine-3-carboxamide]
  pEC50: > 8.00

## C[C@H](NC(=O)c1cnc(C#N)c(-c2cnoc2)c1N1CC[C@](C)(N)C1)C1CC1 [1-134, 4-[(3S)-3-amino-3-methylpyrrolidin-1-yl]-6-cyano-N-[(1S)-1-cyclopropylethyl]-5-(1,2-oxazol-4-yl)pyridine-3-carboxamide]
  pEC50: > 8.00

## CC[C@H](NC(=O)c1cncc(-c2nc3c(C)cccc3[nH]2)c1N1CC[C@](C)(N)C1)C(F)(F)F [2-40, 4-[(3S)-3-amino-3-methylpyrrolidin-1-yl]-5-(4-methyl-1H-1,3-benzodiazol-2-yl)-N-[(2S)-1,1,1-trifluorobutan-2-yl]pyridine-3-carboxamide]
  pEC50: > 8.00

## CC(C)C(NC(=O)c1cncc(-c2cc(F)cc(F)c2)c1N1CC[C@](C)(N)C1)C(F)(F)F (stereo partly drawn) [1-45, 4-[(3S)-3-amino-3-methylpyrrolidin-1-yl]-5-(3,5-difluorophenyl)-N-(1,1,1-trifluoro-3-methylbutan-2-yl)pyridine-3-carboxamide]
  pEC50: > 8.00

## COc1ncc(C(=O)NC2CCC(F)(F)CC2)c(N2CC[C@H](N)C2)c1-c1cc(F)cc(F)c1 [1-150, 4-[(3S)-3-aminopyrrolidin-1-yl]-N-(4,4-difluorocyclohexyl)-5-(3,5-difluorophenyl)-6-methoxypyridine-3-carboxamide]
  pEC50: > 8.00

## C[C@H](NC(=O)c1cncc(-c2cc(F)cc(OC(F)F)c2)c1N1CC[C@](C)(N)C1)C1CC1 [1-143, 4-[(3S)-3-amino-3-methylpyrrolidin-1-yl]-N-[(1S)-1-cyclopropylethyl]-5-[3-(difluoromethoxy)-5-fluorophenyl]pyridine-3-carboxamide]
  pEC50: > 8.00

## C[C@H](NC(=O)c1cnc(OC2CC2)c(-c2cc(F)cc(F)c2)c1N1CC[C@](C)(N)C1)C1CC1 [1-191, 4-[(3S)-3-amino-3-methylpyrrolidin-1-yl]-6-cyclopropoxy-N-[(1S)-1-cyclopropylethyl]-5-(3,5-difluorophenyl)pyridine-3-carboxamide]
  pEC50: > 8.00

## COc1ncc(C(=O)N[C@@H](C)C(F)(F)F)c(N2CC[C@](C)(N)C2)c1-c1cc(F)cc(F)c1 [1-140, 4-[(3S)-3-amino-3-methylpyrrolidin-1-yl]-5-(3,5-difluorophenyl)-6-methoxy-N-[(2S)-1,1,1-trifluoropropan-2-yl]pyridine-3-carboxamide]
  pEC50: > 8.00

## COc1ncc(C(=O)N[C@@H](C)C(F)(F)F)c(N2CC[C@](C)(N)C2)c1-c1cnc(C)nc1 [1-185, 4-[(3S)-3-amino-3-methylpyrrolidin-1-yl]-6-methoxy-5-(2-methylpyrimidin-5-yl)-N-[(2S)-1,1,1-trifluoropropan-2-yl]pyridine-3-carboxamide]
  pEC50: 7.00 to 8.00

## C[C@H](NC(=O)c1ncc(C(N)=O)c(-c2cc(F)cc(F)c2)c1N1CC[C@](C)(N)C1)C1CC1 [4-5, 3-[(3S)-3-amino-3-methylpyrrolidin-1-yl]-N2-[(1S)-1-cyclopropylethyl]-4-(3,5-difluorophenyl)pyridine-2,5-dicarboxamide]
  pEC50: < 6.00

## Cc1cccc2[nH]c(-c3cncc(C(=O)NC45CCC(CC4)C5)c3N3CC[C@](C)(N)C3)nc12 [2-33, 4-[(3S)-3-amino-3-methylpyrrolidin-1-yl]-N-{bicyclo[2.2.1]heptan-1-yl}-5-(4-methyl-1H-1,3-benzodiazol-2-yl)pyridine-3-carboxamide]
  pEC50: > 8.00

## CC(C)(C)NC(=O)c1cncc(-c2cc(F)cc(F)c2)c1N1CC[C@](C)(N)C1 [1-29, 4-[(3S)-3-amino-3-methylpyrrolidin-1-yl]-N-tert-butyl-5-(3,5-difluorophenyl)pyridine-3-carboxamide]
  pEC50: 7.00 to 8.00

## Cc1cc(-c2cncc(C(=O)N[C@@H](C)C3CC3)c2N2CC[C@](C)(N)C2)cc(C)n1 [1-131, 4-[(3S)-3-amino-3-methylpyrrolidin-1-yl]-N-[(1S)-1-cyclopropylethyl]-2′,6′-dimethyl-[3,4′-bipyridine]-5-carboxamide]
  pEC50: > 8.00

## Cc1cc(F)cc(-c2cncc(C(=O)NC3C4CC5CC(C4)CC3C5)c2N2CC[C@](C)(N)C2)c1 (stereo partly drawn) [1-18, N-(adamantan-2-yl)-4-[(3S)-3-amino-3-methylpyrrolidin-1-yl]-5-(3-fluoro-5-methylphenyl)pyridine-3-carboxamide]
  pEC50: 7.00 to 8.00

## Cc1cccc2[nH]c(-c3cncc(C(=O)NCCO)c3N3CC[C@](C)(N)C3)nc12 [2-9, 4-[(3S)-3-amino-3-methylpyrrolidin-1-yl]-N-(2-hydroxyethyl)-5-(4-methyl-1H-1,3-benzodiazol-2-yl)pyridine-3-carboxamide]
  pEC50: 6.00 to 7.00

## COc1ncc(C(=O)N[C@@H](C)C(F)(F)F)c(N2CC[C@H](N)C2)c1-c1cc(F)cc(F)c1 [1-151, 4-[(3S)-3-aminopyrrolidin-1-yl]-5-(3,5-difluorophenyl)-6-methoxy-N-[(2S)-1,1,1-trifluoropropan-2-yl]pyridine-3-carboxamide]
  pEC50: > 8.00

## Cc1ncc(C(=O)NC2CC(F)(F)C2)c(N2CC[C@](C)(N)C2)c1-c1cc(F)cc(F)c1 [1-146, 4-[(3S)-3-amino-3-methylpyrrolidin-1-yl]-N-(3,3-difluorocyclobutyl)-5-(3,5-difluorophenyl)-6-methylpyridine-3-carboxamide]
  pEC50: > 8.00

## COc1ncc(C(=O)N[C@@H](C)C2CC2)c(N2CC[C@H](N)C2)c1-c1cc(F)cc(F)c1 [1-152, 4-[(3S)-3-aminopyrrolidin-1-yl]-N-[(1S)-1-cyclopropylethyl]-5-(3,5-difluorophenyl)-6-methoxypyridine-3-carboxamide]
  pEC50: > 8.00

## CC(NC(=O)c1cnc(C#N)c(-c2cc(F)cc(F)c2)c1N1CC[C@](C)(N)C1)c1cn(C)nn1 (stereo partly drawn) [1-133, 4-[(3S)-3-amino-3-methylpyrrolidin-1-yl]-6-cyano-5-(3,5-difluorophenyl)-N-[1-(1-methyl-1H-1,2,3-triazol-4-yl)ethyl]pyridine-3-carboxamide]
  pEC50: 6.00 to 7.00

## COCCNC(=O)c1cncc(-c2nc3c(C)cccc3[nH]2)c1N1CC[C@](C)(N)C1 [2-8, 4-[(3S)-3-amino-3-methylpyrrolidin-1-yl]-N-(2-methoxyethyl)-5-(4-methyl-1H-1,3-benzodiazol-2-yl)pyridine-3-carboxamide]
  pEC50: 7.00 to 8.00

## Cc1cccc2[nH]c(-c3cncc(C(=O)N4CCC(C(F)(F)F)C4)c3N3CC[C@](C)(N)C3)nc12 (stereo partly drawn) [2-44, (3S)-3-methyl-1-[3-(4-methyl-1H-1,3-benzodiazol-2-yl)-5-[3-(trifluoromethyl)pyrrolidine-1-carbonyl]pyridin-4-yl]pyrrolidin-3-amine]
  pEC50: 7.00 to 8.00

## Cn1ccc(CNC(=O)c2cnc(C#N)c(-c3cc(F)cc(F)c3)c2N2CC[C@](C)(N)C2)n1 [1-105, 4-[(3S)-3-amino-3-methylpyrrolidin-1-yl]-6-cyano-5-(3,5-difluorophenyl)-N-[(1-methyl-1H-pyrazol-3-yl)methyl]pyridine-3-carboxamide]
  pEC50: 7.00 to 8.00
